IC50 data for 25 compounds are collected here from patent US12215093B2, “Bicyclic carboxamides and methods of use thereof” (Tempest Therapeutics, Inc., priority 2018, dated 2025).

Molecules are shown by their SMILES. A value given as a limit tells only on which side of the number the result lay.

The term IC50 denotes the point on the concentration scale where inhibition reaches its midpoint.

One experiment concerns the target T1, EP4 (Homo sapiens, UniProt P35408).
T1 construct: host or cells: stably transfected HEK293 cells co-expressing a promiscuous G protein and a clytin variant
Description: Functional calcium flux assay, EP4. Format: cell-based. Conditions: stably transfected HEK293 cells; PGE2 10 nM; read-out: EP4 Ca2+-flux assay IC50. A general note: A change in cytosolic calcium serves as a functional read-out for many receptors and channels.

The target of a further experiment is EP2 (Homo sapiens, UniProt P43116). Description: cell-based.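 Also: functional calcium flux assay in stably transfected HEK293 cells expressing EP2 coupled via a promiscuous G protein, clytin luminescence read as area under the curve, 30 min compound preincubation.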
EP2, sequence (P43116 whole entry): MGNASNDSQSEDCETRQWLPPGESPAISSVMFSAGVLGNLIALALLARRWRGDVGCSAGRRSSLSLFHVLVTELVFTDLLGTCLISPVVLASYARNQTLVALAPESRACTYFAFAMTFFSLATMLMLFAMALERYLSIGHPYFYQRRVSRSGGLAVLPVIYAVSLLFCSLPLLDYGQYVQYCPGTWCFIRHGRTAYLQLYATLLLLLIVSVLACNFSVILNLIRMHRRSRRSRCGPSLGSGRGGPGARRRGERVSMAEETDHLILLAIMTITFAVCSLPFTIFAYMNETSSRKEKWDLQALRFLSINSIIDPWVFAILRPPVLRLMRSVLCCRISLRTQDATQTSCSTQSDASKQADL

T1 sequence (P35408 whole entry): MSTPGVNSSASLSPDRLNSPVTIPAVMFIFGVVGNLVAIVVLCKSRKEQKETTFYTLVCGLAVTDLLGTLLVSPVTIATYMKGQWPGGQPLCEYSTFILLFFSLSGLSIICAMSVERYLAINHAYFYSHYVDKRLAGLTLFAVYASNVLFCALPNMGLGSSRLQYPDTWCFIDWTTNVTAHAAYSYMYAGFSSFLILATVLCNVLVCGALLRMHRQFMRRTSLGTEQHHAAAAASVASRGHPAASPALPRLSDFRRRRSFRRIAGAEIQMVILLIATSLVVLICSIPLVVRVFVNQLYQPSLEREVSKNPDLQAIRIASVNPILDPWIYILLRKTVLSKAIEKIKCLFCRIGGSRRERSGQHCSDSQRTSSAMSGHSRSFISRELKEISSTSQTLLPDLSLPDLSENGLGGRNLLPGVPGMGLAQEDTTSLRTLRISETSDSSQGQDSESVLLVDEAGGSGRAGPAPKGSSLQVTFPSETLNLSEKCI

Turning to `O=C(NC1CC2(C1)CC(C(=O)O)C2)c1ccc(F)c2ccn(Cc3ccc4cc(F)ccc4c3)c12` (racemic) [Example 5, (racemic)-6-(4-fluoro-1-((6-fluoronaphthalen-2-yl)methyl)-1H-indole-7-carboxamido)spiro[3.3]heptane-2-carboxylic acid], the IC50 at EP4 was below 1 nM; on EP2 it was below 25 nM.
The like results for `O=C(NC1CC2(C1)CC(C(=O)O)C2)c1cccc2cnn(Cc3ccc(-c4ccccc4)cc3)c12` (racemic) [Example 33, (racemic)-6-(1-([1,1′-biphenyl]-4-ylmethyl)-1H-indazole-7-carboxamido)spiro[3.3]heptane-2-carboxylic acid] were, in that order, 3 nM and below 25 nM.
On the same counts, the results for `CCOc1cc(-c2ccc(Cn3ccc4c(F)ccc(C(=O)NC5CC6(C5)CC(C(=O)O)C6)c43)cc2)ccn1` (racemic) [Example 36, (Racemic)-6-(1-(4-(2-ethoxypyridin-4-yl)benzyl)-4-fluoro-1H-indole-7-carboxamido)spiro[3.3]heptane-2-carboxylic acid] are below 1 nM and 72 nM.
On the same counts, the results for `O=C(NC1CC2(C1)CC(C(=O)O)C2)c1ccc(F)c2ccn(Cc3ccc(OC(F)(F)F)cc3)c12` (racemic) [Example 1, (racemic)-6-(4-Fluoro-1-(4-(trifluoromethoxy)benzyl)-1H-indole-7-carboxamido)spiro[3.3]heptane-2-carboxylic acid] are below 1 nM and 34 nM.
In the case of `N#Cc1ccc(-c2ccc(Cn3ccc4c(F)ccc(C(=O)NC5CC6(C5)CC(C(=O)O)C6)c43)cc2)cc1` (racemic) [Example 13, (racemic)-6-(1-((4′-cyano-[1,1′-biphenyl]-4-yl)methyl)-4-fluoro-1H-indole-7-carboxamido)spiro[3.3]heptane-2-carboxylic acid], the IC50 on EP4 was below 1 nM; on EP2 it was 39 nM.
Regarding `O=C(NC1CC2(C1)CC(C(=O)O)C2)c1ccc(F)c2ccn(Cc3ccc(-c4ccc(OC5COC5)c(Cl)c4)cc3)c12` (racemic) [Example 21, (racemic)-6-(1-((3′-Chloro-4′-(oxetan-3-yloxy)-[1,1′-biphenyl]-4-yl)methyl)-4-fluoro-1H-indole-7-carboxamido)spiro[3.3]heptane-2-carboxylic acid], the IC50 on EP4 stood at 1 nM; on EP2 it was 51 nM.
The like results for `CS(=O)(=O)NC(=O)C1CC2(CC(NC(=O)c3ccc(F)c4ccn(Cc5ccc(OC(F)(F)F)cc5)c34)C2)C1` (centres unmarked) [Example 111, (Sa)-4-Fluoro-N-(6-((methylsulfonyl)carbamoyl)spiro[3.3]heptan-2-yl)-1-(4-(trifluoromethoxy)benzyl)-1H-indole-7-carboxamide] were, in that order, 1.2 nM and 38 nM.
On the same counts, the results for `CC(c1ccc(-c2ccccc2)cc1)n1ncc2c(Cl)ccc(C(=O)NC3CC4(C3)CC(C(=O)O)C4)c21` (single isomer, unassigned) [Example 130, (Sa)-6-(1-((R) or (S)-1-([1,1′-biphenyl]-4-yl)-ethyl)-4-chloro-1H-indazole-7-carboxamido)spiro[3.3]heptane-2-carboxylic acid] are below 1 nM and below 25 nM.
With `CC(C)(C)c1ccc(Cn2ccc3c(Cl)ccc(C(=O)NC4CC5(C4)CC(C(=O)O)C5)c32)cc1` (racemic) [Example 7, (racemic)-6-(1-(4-(tert-Butyl)benzyl)-4-chloro-1H-indole-7-carboxamido)spiro[3.3]heptane-2-carboxylic acid], the IC50 is below 1 nM at EP4 and below 25 nM at EP2.
The like results for `CCOc1cc(-c2ccc(Cn3ncc4cc(Cl)cc(C(=O)NC5CC6(C5)CC(C(=O)O)C6)c43)cc2)ccn1` (centres unmarked) [Example 136, (Sa)-6-(5-chloro-1-(4-(2-ethoxypyridin-4-yl)benzyl)-1H-indazole-7-carboxamido)spiro[3.3]heptane-2-carboxylic acid] were, in that order, below 1 nM and below 25 nM.
The like results for `COc1cc(C#N)cc(-c2ccc(Cn3ccc4c(F)ccc(C(=O)NC5CC6(C5)CC(C(=O)O)C6)c43)cc2)c1` (racemic) [Example 20, (racemic)-6-(1-((3′-cyano-5′-methoxy-[1,1′-biphenyl]-4-yl)methyl)-4-fluoro-1H-indole-7-carboxamido)spiro[3.3]heptane-2-carboxylic acid] were, in that order, below 1 nM and below 25 nM.
On the same counts, the results for `[2H]C([2H])([2H])Oc1cccc(-c2ccc(Cn3ccc4c(F)ccc(C(=O)NC5CC6(C5)CC(C(=O)O)C6)c43)cc2)c1` (centres unmarked) [Example 52, (Sa)-6-(4-fluoro-1-((3’-methoxy-d3-[1,1′-biphenyl]-4-yl)methy1)-1H-indole-7-carboxamido)spiro[3.3]heptane-2-carboxylic acid] are below 1 nM and below 25 nM.
Turning to `COc1ccccc1-c1ccc(Cn2ccc3c(F)ccc(C(=O)NC4CC5(C4)CC(C(=O)O)C5)c32)cc1` (racemic) [Example 18, (racemic)-6-(4-fluoro-1-((2′-methoxy-[1,1′-biphenyl]-4-yl)methyl)-1H-indole-7-carboxamido)spiro[3.3]heptane-2-carboxylic acid], the IC50 on EP4 was below 1 nM; against EP2, 34 nM.
On the same counts, the results for `O=C(NC1CC2(C1)CC(C(=O)O)C2)c1ccc(F)c2ccn(Cc3ccc(-c4ccc(OC5COC5)cc4)cc3)c12` (racemic) [Example 23, (racemic)-6-(4-Fluoro-1-((4′-(oxetan-3-yloxy)-[1,1′-biphenyl]-4-yl)methyl)-1H-indole-7-carboxamido)spiro[3.3]heptane-2-carboxylic acid] are 1 nM and 60 nM.
On the same counts, the results for `O=C(NC1CC2(C1)CC(C(=O)O)C2)c1ccc(F)c2ccn(Cc3ccc(-c4ccccc4)cc3F)c12` (centres unmarked) [Example 66, (Sa)-6-(4-Fluoro-1-((3-fluoro-[1,1′-biphenyl]-4-yl)methyl)-1H-indole-7-carboxamido)spiro[3.3]heptane-2-carboxylic acid] are below 1 nM and below 25 nM.
The like results for `CC(c1ccc(-c2ccccc2)cc1)n1ncc2c(Cl)ccc(C(=O)NC3CC4(C3)CC(C(=O)O)C4)c21` (racemic) [Example 121, (Sa)-6-(1-((racemic)-1-([1,1′-biphenyl]-4-yl)-ethyl)-4-chloro-1H-indazole-7-carboxamido)spiro[3.3]heptane-2-carboxylic acid] were, in that order, 6.6 nM and below 25 nM.
For the compound `COc1ccc2cc(-c3ccc(Cn4ccc5c(F)ccc(C(=O)NC6CC7(CC(CC(=O)O)C7)C6)c54)cc3)ccc2n1` (single isomer, unassigned) [Example 140, (Ra)-2-(6-(4-Fluoro-1-(4-(2-methoxyquinolin-6-yl)benzyl)-1H-indole-7-carboxamido)spiro[3.3]heptan-2-yl)acetic acid], the IC50 on EP4 was below 1 nM; against EP2 it was below 25 nM.
Regarding `COc1ccc2cc(-c3ccc(Cn4ccc5c(F)ccc(C(=O)NC6CC7(CC(CC(=O)O)C7)C6)c54)cc3)ccc2n1` (single isomer, unassigned) [Example 137, (Sa)-2-(6-(4-Fluoro-1-(4-(2-methoxyquinolin-6-yl)benzyl)-1H-indole-7-carboxamido)spiro[3.3]heptan-2-yl)acetic acid], the IC50 was found to be 3.2 nM on EP4 and 64 nM on EP2.
On to `[2H]C([2H])([2H])C([2H])(c1ccc(-c2ccccc2)cc1)n1ncc2c(Cl)ccc(C(=O)NC3CC4(C3)CC(C(=O)O)C4)c21` (racemic) [Example 166, (Sa)-6-(1-((racemic)-1-([1,1′-Biphenyl]-4-yl)ethyl-1,2,2,2-d4)-4-chloro-1H-indazole-7-carboxamido)spiro[3.3]heptane-2-carboxylic acid], for which the values for the 50% inhibitory concentration (IC50) at EP4 and against EP2 were 3.9 nM and 26 nM, respectively.
`CCOc1cccc(-c2ccc(C(C)n3ncc4cccc(C(=O)NC5CC6(C5)CC(C(=O)O)C6)c43)cc2)n1` (racemic) [Example 133, (Sa)-6-(1-((racemic)-1-(4-(6-Ethoxypyridin-2-yl)phenyl)-ethyl)-1H-indazole-7-carboxamido)spiro[3.3]heptane-2-carboxylic acid]: the IC50 is below 1 nM at EP4 and 65 nM on EP2.
The like results for `O=C(NC1CC2(C1)CC(C(=O)O)C2)c1ccc(Cl)c2ccn(Cc3ccc(N4CCOCC4)cc3)c12` (centres unmarked) [Example 71, (Sa)-6-(4-Chloro-1-(4-morpholinobenzyl)-1H-indole-7-carboxamido)spiro[3.3]heptane-2-carboxylic acid] were, in that order, below 1 nM and 94 nM.
The like results for `CNC(=O)c1cc(-c2ccc(Cn3ncc4c(Cl)ccc(C(=O)NC5CC6(C5)CC(F)(C(=O)O)C6)c43)cc2)ccn1` (racemic) [Example 102, (racemic)-6-(4-chloro-1-(4-(2-(methylcarbamoyl)pyridin-4-yl)benzyl)-1H-indazole-7-carboxamido)-2-fluorospiro[3.3]heptane-2-carboxylic acid] were, in that order, 8.9 nM and 81 nM.
The like results for `N#Cc1cccc(-c2ccc(Cn3ccc4c(F)ccc(C(=O)NC5CC6(C5)CC(C(=O)O)C6)c43)cc2)c1` (racemic) [Example 15, (racemic)-6-(1-((3′-cyano-[1,1′-biphenyl]-4-yl)methyl)-4-fluoro-1H-indole-7-carboxamido)spiro[3.3]heptane-2-carboxylic acid] were, in that order, below 1 nM and below 25 nM.
As to `O=C(O)CC1CC2(C1)CC(NC(=O)c1cc(F)cc3cnn(Cc4ccc(-c5ccccc5)cc4)c13)C2` (racemic) [Example 107, (racemic)-2-(6-(1-([1,1′-biphenyl]-4-ylmethyl)-5-fluoro-1H-indazole-7-carboxamido)spiro[3.3]heptan-2-yl)acetic acid], the IC50 is below 1 nM at EP4 and 33 nM at EP2.
On the same counts, the results for `O=C(NC1CC2(C1)CC(C(=O)O)C2)c1ccc(Cl)c2cnn(C3(c4ccc(-c5ccccc5)cc4)COC3)c12` (centres unmarked) [Example 176, (Sa)-6-(1-(3-([1,1′-Biphenyl]-4-yl)oxetan-3-yl)-4-chloro-1H-indazole-7-carboxamido)spiro[3.3]heptane-2-carboxylic acid] are 2.9 nM and below 25 nM.
